Results on 25 compounds are retold here after US6777422B2, “Substituted tetrahydroisoquinolines as C5a receptor modulators” (Neurogen Corp., priority 2002, dated 2004).

A value given as a limit tells only on which side of the number the result lay.

One assay deals with T1, human C5a receptor (Homo sapiens, UniProt P21730).
T1 construct: endogenous in cells; host or cells: U937 cells differentiated with 1 mM dibutyryl cAMP
T1 sequence (P21730 1-350): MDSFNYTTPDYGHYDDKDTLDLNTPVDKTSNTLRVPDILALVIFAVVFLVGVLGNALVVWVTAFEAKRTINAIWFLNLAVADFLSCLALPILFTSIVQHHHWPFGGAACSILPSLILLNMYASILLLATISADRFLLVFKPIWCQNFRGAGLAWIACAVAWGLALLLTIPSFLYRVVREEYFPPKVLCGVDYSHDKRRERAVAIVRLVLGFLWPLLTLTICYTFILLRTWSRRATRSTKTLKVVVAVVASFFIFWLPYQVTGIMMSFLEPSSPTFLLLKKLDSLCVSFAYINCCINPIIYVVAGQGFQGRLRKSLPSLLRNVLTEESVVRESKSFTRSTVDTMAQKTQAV
The assay is described as follows: C5a receptor mediated calcium mobilization assay (Example 20). Conditions: differentiated U937 cells, read-out: Ca2+ (Ki in the standard assay of C5a receptor mediated calcium mobilization). Type of assay: cell-based. Here is the method:
Calcium Mobilization Assays
U937 cells are grown in differentiation media (1 mM dibutyryl cAMP in RPMI 1640 medium containing 10% fetal bovine serum) for 48 hrs at 37° C. then reseeded onto 96-well plates suitable for use in a FLIPR™ Plate Reader (Molecular Devices Corp., Sunnyvale Calif.). Cells are grown an additional 24 hours (to 70-90% confluence) before the assay. The cells are then washed once with Krebs Ringer solution. FLUO-3 calcium sensitive dye (Molecular Probes, Inc. Eugene, Oreg.) is added to 10 μg/mL and incubated with the cells at room temperature for 1 to 2 hours. The 96 well plates are then washed to remove excess dye. Fluorescence responses, measured by excitation at 480 nm and emission at 530 nm, are monitored upon the addition of human C5a to the cells to a final concentration of 0.01-30.0 nM, using the FLIPR™ device (Molecular Devices).
C. Assays for the Identification of Receptor Modulatory Agents: Antagonists and Agonists
The calcium mobilization assay described above may be readily adapted for identifying test compounds that have agonist or antagonist activity at the human C5a receptor.
For example, in order to identify antagonist compounds, differentiated U937 cells are washed and incubated with Fluo-3 dye as described above. One hour prior to measuring the fluorescence signal, a subset of the cells is incubated with 1 μM of at least one compound to be tested. The fluorescence response upon the subsequent addition of 0.3 nM (final concentration) human recombinant C5a is monitored using the FLIPR™ plate reader. Antagonist compounds elicit at least a 2-fold decrease in the fluorescence response relative to that measured in the presence of human C5a alone. Preferred antagonist compounds elicit at least a 5-fold, preferably at least a 10-fold, and more preferably at least a 20-fold decrease in the fluorescence response relative to that measured in the presence of human C5a alone.
Background: A change in cytosolic calcium serves as a functional read-out for many receptors and channels.
With `Cc1ccccc1C1c2ccccc2CCN1CC(=O)N(Cc1ccccc1F)C1Cc2ccccc2C1` (stereo in doubt) [Compound 28, N-(indan-2-yl)-N-(2-fluorobenzyl)-2-[(1S)-1-(2-methylphenyl)-3,4-dihydroisoquinolin-2(1H)-yl]acetamide], the Ki was < 1000 nM. Still for that read-out and setting: for `C[C@@H](C(=O)N(Cc1cccc(O)c1)C1Cc2ccccc2C1)N1CCc2ccccc2[C@@H]1c1ccccc1Cl` [Compound 114, (2S)-2-[(1R)-1-(2-chlorophenyl)-3,4-dihydroisoquinolin-2(1H)-yl]-N-(indan-2-yl)-N-(3-hydroxybenzyl)propanamide] the value was < 1000 nM.

With `C[C@H]1CN(CC(=O)N(Cc2ccccc2F)C2Cc3ccccc3C2)[C@@H](c2ccccc2Cl)c2ccccc21` [Compound 59, 2-[(1R,4R)-1-(2-chlorophenyl)-4-methyl-3,4-dihydroisoquinolin-2(1H)-yl]-N-(indan-2-yl)-N-(2-fluorobenzyl)acetamide], the Ki is < 1000 nM. Still for that read-out and setting: for `Cc1ccccc1C1c2ccccc2[C@@H](C)CN1CC(=O)N(Cc1ccccc1F)C1Cc2ccccc2C1` (stereo in doubt) [Compound 30, N-(2-Fluoro-benzyl)-N-indan-2-yl-2-(4-methyl-1-o-tolyl-3,4-dihydro-1H-isoquinolin-2-yl)-acetamide] the value was < 1000 nM. Still for that read-out and setting: for `Cc1ccc(Cl)c([C@@H]2c3ccccc3CCN2CC(=O)N(Cc2ccccc2F)C2Cc3ccccc3C2)c1` (stereo in doubt) [Compound 52, 2-[1-(2-chloro-5-methylphenyl)-3,4-dihydroisoquinolin-2(1H)-yl]-N-(indan-2-yl)-N-(2-fluorobenzyl)acetamide] the value was < 1000 nM; for `Cc1ccc(C)c([C@H]2c3ccccc3CCN2[C@@H](C)C(=O)N(Cc2ccccc2F)C2Cc3ccccc3C2)c1` [Compound 85, (2S)-N-(indan-2-yl)-2-[(1S)-1-(2,5-dimethylphenyl)-3,4-dihydroisoquinolin-2(1H)-yl]-N-(2-fluorobenzyl)propanamide], < 1000 nM; for `C[C@@H](C(=O)N(Cc1ccccc1F)C1Cc2ccccc2C1)N1CCc2ccccc2[C@@H]1c1cccc2ccccc12` [Compound 63, (2S)-N-(indan-2-yl)-N-(2-fluorobenzyl)-2-[(1R)-1-(1-naphthyl)-3,4-dihydroisoquinolin-2(1H)-yl]propanamide], < 1000 nM. Still for that read-out and setting: for `O=C(CN1CCc2ccccc2[C@H]1c1ccccc1Br)N(Cc1ccccc1F)C1Cc2ccccc2C1` (stereo in doubt) [Compound 22, 2-[1-(2-bromophenyl)-3,4-dihydroisoquinolin-2(1H)-yl]-N-(indan-2-yl)-N-(2-fluorobenzyl)acetamide] the value was < 1000 nM. Take `Cc1ccccc1C1c2c(F)cccc2CCN1CC(=O)N(Cc1ccccc1F)C1Cc2ccccc2C1` (stereo not shown) [Compound 100, N-(indan-2-yl)-N-(2-fluorobenzyl)-2-[8-fluoro-1-(2-methylphenyl)-3,4-dihydroisoquinolin-2(1H)-yl]acetamide]: the Ki was < 1000 nM. Regarding `C[C@@H](C(=O)N(Cc1ccccc1)Cc1ccc(O)cc1Cl)N1CCc2ccccc2[C@@H]1c1ccccc1Br` [Compound 77, (2S)-N-benzyl-2-[(1R)-1-(2-bromophenyl)-3,4-dihydroisoquinolin-2(1H)-yl]-N-(2-chloro-4-hydroxybenzyl)propanamide], the Ki is < 1000 nM. On to `Cc1cccc(C)c1C1c2ccccc2CCN1CC(=O)N(Cc1ccccc1F)C1Cc2ccccc2C1` (stereo not shown) [Compound 56, N-(indan-2-yl)-2-[1-(2,6-dimethylphenyl)-3,4-dihydroisoquinolin-2(1H)-yl]-N-(2-fluorobenzyl)acetamide], for which the Ki is < 1000 nM.

Take `C[C@@H](C(=O)N(Cc1c[nH]cn1)C1Cc2ccccc2C1)N1CCc2ccccc2[C@@H]1c1ccccc1Cl` [Compound 97, (2S)-2-[(1R)-1-(2-chlorophenyl)-3,4-dihydroisoquinolin-2(1H)-yl]-N-(indan-2-yl)-N-(1H-imidazol-4-ylmethyl)propanamide]: the Ki was < 1000 nM. On the same count and under the same terms, under `CCc1ccccc1C1c2ccccc2CCN1CC(=O)N(Cc1ccccc1F)C1Cc2ccccc2C1` (stereo not shown) [Compound 29, N-(indan-2-yl)-2-[1-(2-ethylphenyl)-3,4-dihydroisoquinolin-2(1H)-yl]-N-(2-fluorobenzyl)acetamide] stands < 1000 nM; under `C[C@@H](C(=O)N(CCc1ccccc1)CCc1ccccc1F)N1CCc2ccccc2[C@@H]1c1ccccc1Cl` [Compound 108, (2S)-2-[(1R)-1-(2-chlorophenyl)-3,4-dihydroisoquinolin-2(1H)-yl]-N-[2-(2-fluorophenyl)ethyl]-N-(2-phenylethyl)propanamide], < 1000 nM.

Consider `COc1ncccc1CN(Cc1ccccc1F)C(=O)[C@H](C)N1CCc2ccccc2[C@@H]1c1cccc2ccccc12` [Compound 122, (2S)-N-(2-fluorobenzyl)-N-[(2-methoxypyridin-3-yl)methyl]-2-[(1R)-1-(1-naphthyl)-3,4-dihydroisoquinolin-2(1H)-yl]propanamide], for which the Ki is < 1000 nM. Still for that read-out and setting: under `Cc1ccccc1[C@@H]1c2ccccc2CCN1[C@@H](C)C(=O)N(Cc1ccccc1F)C1Cc2ccccc2C1` (relative stereo) [Compound 19, N-(indan-2-yl)-N-(2-fluorobenzyl)-2-[1-(2-methylphenyl)-3,4-dihydroisoquinolin-2(1H)-yl]propanamide] stands < 1000 nM; under `Cc1cc(CN(C(=O)[C@H](C)N2CCc3ccccc3[C@@H]2c2c(Cl)cccc2Cl)C2Cc3ccccc3C2)cc(C)c1O` [Compound 110, (2S)-2-[(1R)-1-(2,6-dichlorophenyl)-3,4-dihydroisoquinolin-2(1H)-yl]-N-(indan-2-yl)-N-(4-hydroxy-3,5-dimethylbenzyl) propanamide], < 1000 nM; under `COc1cccc(CN(C(=O)[C@H](C)N2CCc3ccccc3[C@@H]2c2cccc3ccccc23)C2Cc3ccccc3C2)n1` [Compound 124, (2S)-N-(indan-2-yl)-N-[(6-methoxypyridin-2-yl)methyl]-2-[(1R)-1-(1-naphthyl)-3,4-dihydroisoquinolin-2(1H)-yl]propanamide], < 1000 nM.

Regarding `Cc1cccc([C@H]2c3ccccc3CCN2[C@@H](C)C(=O)N(Cc2ccccc2F)C2Cc3ccccc3C2)c1C` [Compound 67, (2S)-N-(indan-2-yl)-2-[(1R)-1-(2,3-dimethylphenyl)-3,4-dihydroisoquinolin-2(1H)-yl]-N-(2-fluorobenzyl)propanamide], the Ki was < 1000 nM. On to `Cc1ccc(Cl)c([C@H]2c3ccccc3CCN2[C@@H](C)C(=O)N(Cc2ccccc2F)C2Cc3ccccc3C2)c1` [Compound 84, (2S)-2-[(1R)-1-(2-chloro-5-methylphenyl)-3,4-dihydroisoquinolin-2(1H)-yl]-N-(indan-2-yl)-N-(2-fluorobenzyl)propanamide], for which the Ki was < 1000 nM. Same read-out and setting: under `C[C@@H](C(=O)N(Cc1ccccc1O)C1Cc2ccccc2C1)N1CCc2ccccc2[C@@H]1c1ccccc1Cl` [Compound 90, (2S)-2-[(1R)-1-(2-chlorophenyl)-3,4-dihydroisoquinolin-2(1H)-yl]-N-(indan-2-yl)-N-(2-hydroxybenzyl)propanamide] stands < 1000 nM.

Still in this assay, the particulars now being: differentiated U937 cells, unit inferred, read-out: Ca2+ (numeric value, C5a receptor mediated calcium mobilization).
With `CC1=C(C)C(c2ccccc2)N(CC(=O)N(Cc2ccccc2F)C2Cc3ccccc3C2)CC1` (stereo not shown) [Compound 134, 2-(4,5-Dimethyl-6-phenyl-3,6-dihydro-2H-pyridin-1-yl)-N-(2-fluoro-benzyl)-N-indan-2-yl-acetamide], the Ki is 575 nM. On the same count and under the same terms, under `CC1=C(C)C(c2ccccc2C)N(CC(=O)N(Cc2ccccc2F)C2Cc3ccccc3C2)CC1` (stereo not shown) [Compound 135, 2-(4,5-Dimethyl-6-o-tolyl-3,6-dihydro-2H-pyridin-1-yl)-N-(2-fluoro-benzyl)-N-indan-2-yl-acetamide] stands 193 nM.

As for `Cc1ccccc1C1C(C)CCCN1CC(=O)N(Cc1ccccc1F)C1Cc2ccccc2C1` (stereo not shown) [Compound 128, N-(2-Fluoro-benzyl)-N-indan-2-yl-2-(3-methyl-2-o-tolyl-piperidin-1-yl)-acetamide], the Ki came out at 547 nM. Same read-out and setting: under `CN(CC(=O)N(Cc1ccccc1F)C1Cc2ccccc2C1)C(c1ccccc1)c1ccccc1` [Compound 133, 2-(Benzhydryl-methyl-amino)-N-(2-fluoro-benzyl)-N-indan-2-yl-acetamide] stands 465 nM.
